ChEMBL document CHEMBL5661943, “ASAP - In vitro antiviral effect” (2024)
Values joined by “and” are separate entries in the source; they are usually repeats but may differ in a detail not shown here. Equal values may be shown once.

What was measured:
dengue virus type 2 = assay: Functional assay to measure dose dependent changes in antiviral-drug inhibitory efficacy against Dengue virus type 2 New Guinea C in Vero E6 miRFP670 cells (cotreated with P-gp inhibitor, CP100356). Cells are treated with antiviral candidates that are serially diluted, following infection, cells are fixed. EC50 is reported via analysis of fluorescence intensity using high-content imager. The …; type: organism-based, Chlorocebus sabaeus, Vero C1008
Zika virus = assay: Functional CPE-based assay to measure dose dependent changes in antiviral-drug inhibitory efficacy against Zika virus MR766 in Vero E6 miRFP670 cells (cotreated with P-gp inhibitor, CP100356). Cells are treated with antiviral candidates that are serially diluted. EC50 is reported via analysis of MTS assay as a readout of CPE. The assay has been performed by KU Leuven.; type: organism-based, Chlorocebus sabaeus, Vero C1008; conditions: for EC90: P-gp concentration 500 nM, P-gp inhibitor CP100356

Structure (SMILES): C[C@@]1(O)[C@H](O)[C@@H](CO)O[C@H]1n1ccc(N)nc1=O
- EC50 (dengue virus type 2; Dengue virus, Vero C1008): 116 µM
- EC90 (dengue virus type 2; Dengue virus, Vero C1008, Baseline response 0 %, Hill slope -2.692, Maximum measured 107.888 %, Maximum response 100 %, Minimum measured 21.977 %, P-gp concentration 500 nM, R squared 0.958, P-gp inhibitor CP100356): > 200 µM

Structure (SMILES): C=C1C[C@H](c2cc(Cl)cc(NC(=O)OCc3ccccc3)c2)[C@@H](c2cccc(-c3nn[nH]n3)c2)C1
- EC50 (dengue virus type 2; Dengue virus, Vero C1008): > 6.25 µM
- EC90 (dengue virus type 2; Dengue virus, Vero C1008, Maximum measured 124.641 %, Minimum measured 90.066 %, P-gp concentration 500 nM, P-gp inhibitor CP100356): > 6.25 µM

Structure (SMILES): CN(C)C(=O)c1cc(CN)cc([C@@H]2C[C@H]2c2cc(Cl)cc(NC(=O)OCc3ccccc3)c2)c1
- EC50 (dengue virus type 2; Dengue virus, Vero C1008): 2 µM
- EC90 (dengue virus type 2; Dengue virus, Vero C1008, Baseline response 0 %, Hill slope -4.597, Maximum measured 117.075 %, Maximum response 100 %, Minimum measured 13.909 %, P-gp concentration 500 nM, R squared 0.926, P-gp inhibitor CP100356): > 3.12 µM

Structure (SMILES): CC(=Cc1cc(Cl)cc(NC(=O)OCc2ccccc2)c1)c1cccc(CN)c1
- EC50 (dengue virus type 2; Dengue virus, Vero C1008): > 1.56 µM
- EC90 (dengue virus type 2; Dengue virus, Vero C1008, Maximum measured 159.566 %, Minimum measured 81.442 %, P-gp concentration 500 nM, P-gp inhibitor CP100356): > 1.56 µM

Structure (SMILES): C=CC[C@H](Nc1cc(Cl)cc(NC(=O)OCc2ccccc2)c1)c1cccc(CN)c1
- EC50 (dengue virus type 2; Dengue virus, Vero C1008): 0.546 µM
- EC90 (dengue virus type 2; Dengue virus, Vero C1008, Baseline response 0 %, EC90 CI (lower) 0.029 uM, EC90 CI (upper) 0.719 uM, Hill slope -1.654, Maximum measured 56.301 %, Maximum response 100 %, Minimum measured 0.945 %, P-gp concentration 500 nM, R squared 0.693, P-gp inhibitor CP100356): 2.06 µM

Structure (SMILES): CC(C)NC(=O)[C@H](Nc1ccc2c(c1)CNC2)c1cc(Cl)cc2[nH]c(-c3ccccc3)nc12
- EC90 (dengue virus type 2; Baseline response 0 %, Hill slope -0.821, Maximum measured 139.415 %, Maximum response 100 %, Minimum measured 43.862 %, P-gp concentration 500 nM, R squared 0.144, P-gp inhibitor CP100356): > 50 µM
- EC90 (dengue virus type 2; Baseline response 0 %, Hill slope -1.532, Maximum measured 181.616 %, Maximum response 100 %, Minimum measured 48.773 %, P-gp concentration 500 nM, R squared 0.025, P-gp inhibitor CP100356): > 50 µM
- EC90 (dengue virus type 2; Baseline response 0 %, Hill slope -1.75, Maximum measured 104.337 %, Maximum response 100 %, Minimum measured 20.383 %, P-gp concentration 500 nM, R squared 0.733, P-gp inhibitor CP100356): > 12.5 µM
- EC50 (dengue virus type 2; vero c1008): 5.05 µM and > 50 µM
- EC90 (Zika virus; Baseline response 0 %, EC90 CI (lower) 1.625 uM, EC90 CI (upper) 3.959 uM, Hill slope 3.776, Maximum measured 116.485 %, Maximum response 100 %, Minimum measured 3.087 %, R squared 0.948): 2.54 µM
- EC90 (Zika virus; Zika virus, Vero C1008, Maximum measured -0.317 %, Minimum measured -11.958 %): > 50 µM
- EC90 (Zika virus; Zika virus, Vero C1008, Baseline response 0 %, Hill slope 1.53, Maximum measured 31.705 %, Maximum response 100 %, Minimum measured 3.074 %, R squared 0.825): > 3.12 µM

Structure (SMILES): N[C@H]1Cc2ccc(NC(=O)c3cc(Cl)cc(NC(=O)OCc4ccccc4)c3)cc2C1
- EC50 (dengue virus type 2; Dengue virus, Vero C1008): 1.64 µM
- EC90 (dengue virus type 2; Dengue virus, Vero C1008, Baseline response 0 %, EC90 CI (lower) 0.187 uM, EC90 CI (upper) 8.327 uM, Hill slope -7.929, Maximum measured 105.944 %, Maximum response 100 %, Minimum measured 3.386 %, P-gp concentration 500 nM, R squared 0.874, P-gp inhibitor CP100356): 2.17 µM

Structure (SMILES): NCc1ccc2c(c1)[C@H]1OCCC[C@H]1[C@H](c1cc(Cl)cc(NC(=O)OCc3ccccc3)c1)N2
- EC50 (dengue virus type 2; Dengue virus, Vero C1008): 1.9 µM
- EC90 (dengue virus type 2; Dengue virus, Vero C1008, Baseline response 0 %, EC90 CI (lower) 1.087 uM, EC90 CI (upper) 1.673 uM, Hill slope -6.376, Maximum measured 104.423 %, Maximum response 100 %, Minimum measured 0.619 %, P-gp concentration 500 nM, R squared 0.968, P-gp inhibitor CP100356): 2.69 µM

Structure (SMILES): COc1ccc(S(=O)(=O)Nc2cc(F)c(Cl)cc2C(=O)NCC(C)C)cc1
- EC50 (dengue virus type 2; Dengue virus, Vero C1008): 5.86 µM
- EC90 (dengue virus type 2; Dengue virus, Vero C1008): 6.67 µM

Structure (SMILES): O=C(Nc1cc(Cl)cc([C@H]2C[C@@H]2c2cccc(-c3nnn[nH]3)c2)c1)OCc1ccccc1
- EC50 (dengue virus type 2; Dengue virus, Vero C1008): > 25 µM
- EC90 (dengue virus type 2; Dengue virus, Vero C1008, Maximum measured 174.938 %, Minimum measured 87.593 %, P-gp concentration 500 nM, P-gp inhibitor CP100356): > 25 µM

Structure (SMILES): C=CC[C@H]1NCc2cc(NC(=O)c3cc(Cl)cc4[nH]ncc34)ccc21
- EC50 (Zika virus; Zika virus, Vero C1008): > 50 µM
- EC90 (Zika virus; Zika virus, Vero C1008, Baseline response 0 %, Hill slope 0.168, Maximum measured 60.303 %, Maximum response 100 %, Minimum measured -6.598 %, R squared 0.022): > 50 µM

Structure (SMILES): CC1(C)NCc2cc(NC(=O)c3cc(F)cc4[nH]ncc34)ccc21
- EC50 (Zika virus; Zika virus, Vero C1008): > 50 µM
- EC90 (Zika virus; Zika virus, Vero C1008, Maximum measured -0.426 %, Minimum measured -7.479 %): > 50 µM

Structure (SMILES): O=C(O)Cn1ncc2cc(-c3cc(Cl)cc(NC(=O)OCc4ccccc4)c3)ccc21
- EC50 (dengue virus type 2; Dengue virus, Vero C1008): > 50 µM
- EC90 (dengue virus type 2; Dengue virus, Vero C1008, Maximum measured 125.945 %, Minimum measured 96.066 %, P-gp concentration 500 nM, P-gp inhibitor CP100356): > 50 µM

Structure (SMILES): NCc1cccc(-c2csc3cc(C(=O)Nc4ccc5c(c4)CNC5)ccc23)c1
- EC50 (Zika virus; Zika virus, Vero C1008): 2.4 µM
- EC90 (Zika virus; Zika virus, Vero C1008, Baseline response 0 %, Hill slope 1.279, Maximum measured 60.824 %, Maximum response 100 %, Minimum measured 10.172 %, R squared 0.942): > 3.12 µM

Structure (SMILES): O=C(Nc1cc(Cl)cc(CNc2cccc(-c3nn[nH]n3)c2)c1)OCc1ccccc1
- EC50 (dengue virus type 2; Dengue virus, Vero C1008): > 25 µM
- EC90 (dengue virus type 2; Dengue virus, Vero C1008, Maximum measured 175.327 %, Minimum measured 92.337 %, P-gp concentration 500 nM, P-gp inhibitor CP100356): > 25 µM
